Measurements published in EP2545917B1, “NOVEL EP4 AGONIST” (Kaken Pharmaceutical Co., Ltd., priority 2010, dated 2011).
pKi: −log10 of the molar value.

Columns and labels:
[1] = system: concanavalin A-induced hepatitis; assay: Prophylactic effect on concanavalin A-induced hepatitis model in mice; format: in vivo, BALB/c mice; details: oral 1 hr before Con A, compound F 1 mg/10 mL/kg, prednisolone 5 mg/10 mL/kg, 20 hr after Con A
Method: BALB/c mice (female, 7 weeks old, Japan SLC) were purchased, acclimated for 1 week and used for the study. Except the no-induction group, Con A (type IV, Sigma-Aldrich) dissolved in saline was administered from the tail vein of the mice at a dose of 12.5 mg/10 mL/kg to induce hepatitis. Twenty hr later, the mice were subjected to laparotomy under ether anesthesia. A 0.5 mL of blood sample was collected from the caudal vena cava and heparinized plasma was obtained to measure plasma ALT and AST activities. Test substances were compound F (1 mg/10 mL solution), prednisolone (Nacalai Tesque, 5 mg/10 mL suspension (with 0.5 w/v% methylcellulose)) and water for injection (administered to the control group), which were orally administered at a volume of 10 mL/kg 1 hr before Con A injection. Seven to 9 animals were used for each group. After logarithmic transformation of the data, one-way analysis of variance was performed for statistical evaluation.

[2] = system: dextran sodium sulfate-induced colitis; assay: Dextran sodium sulfate-induced colitis model in mice (C57BL/6); format: in vivo; details: C57BL/6 mice, DSS, oral 0.3 and 1 mg/kg once a day
Method: Female C57BL/6 mice (6 weeks old, Japan SLC) were purchased, acclimated for 1 week and used for the study. Except the normal group, the mice were allowed to freely drink a 3 or 2 w/v% DSS (MP Biochemicals, Lot No. 5653H and 5464H, respectively) solution for 1 week to induce colitis. BPS at a dose of 0.3 mg/kg and compound F at doses of 0.3 and 1 mg/kg were orally administered once a day, daily, from the start day of DSS drinking (day 0) to one day before autopsy (day 9). To the control group was orally administered a solvent (1 vol% ethanol solution) at 10 mL/kg in the same manner. The consistency of the stool was graded from score 0 to 4, with normal (0), partly loose stool (1), loose stool (2) and diarrhea (4). The blood feces was also graded from score 0 to 4, with normal (0), partly blood feces (1), blood feces (2) and blood feces plus proctorrhagia (4). The sum of both grades was defined as the stool score (maximum 8). Furthermore, the length of the large intestine was measured in the same manner as in Example 23. Six to 10 animals were used for each group, and the results are shown in average ± standard deviation.

[3] = system: ethanol-induced gastric mucosal injury; assay: Ethanol-induced gastric mucosal injury model in rats; format: in vivo, SD rats
Method: Male SD rats (7 weeks old, Charles River) were purchased through Oriental BioService Inc., acclimated for 1 week and used for the study. The rats were grouped based on the body weight, placed in a clean cage set with a wire mesh floor one day before the study, fasted for 19 hr (without water for last 3 hr), and orally administered with ethanol (special grade, Nacalai Tesque, Lot No. V8A5862, 1.5 mL) in all groups to induce gastric mucosal injury. Compound F was orally administered at doses of 0.01, 0.1 and 1 mg/kg 30 min before induction of gastric mucosal injury at a volume of 5 mL/kg. To the control group was orally administered a solvent (1 vol% ethanol solution) at 5 mL/kg in the same manner. Eight animals were used for each group.
The rats were bled to death from the abdominal aorta and caudal vena cava under ether anesthesia after 1 hr from the ethanol administration, and the stomach was isolated. The isolated stomach was immediately filled with 2 vol% neutral formalin solution (6 mL) and fixed for 15 min. The stomach was incised along the midline of the greater curvature from the cardiac part to the pyloric part, and extended on a vinyl chloride board. The length and width of each ulcer were measured under a stereomicroscope, the area was calculated, and the sum thereof was taken as the total ulcer area.

[4] = system: dextran sodium sulfate-induced colitis; assay: Prophylactic effect on dextran sodium sulfate-induced colitis model in mice (BALB/c); format: in vivo; details: 2.2 w/v% DSS
Method: Female BALB/c mice (6 weeks old, Japan SLC) were purchased, acclimated for 1 week and used for the study. Except the normal group, the mice were allowed to freely drink a dextran sodium sulfate (to be abbreviated as DSS, MP Biochemicals, M.W. 36,000 - 50,000, Lot No. 3439J) solution prepared to 2.2 w/v% for 9 days to induce colitis. Compound F was orally administered at doses of 0.1, 0.3 and 1 mg/kg, once a day, daily, from the start day of DSS drinking (day 0) to one day before autopsy (day 9). To the control group was orally administered a solvent (1 vol% ethanol solution) at 10 mL/kg in the same manner.
Thus, to determine the level of diarrhea, the stool was graded into 6 levels; normal (score 0), spherical stool being not less than 50% (score 1), banana-shaped stool being less than 50% (score 2), banana-shaped stool being not less than 50% (score 3), muddy stool (score 4), watery stool (score […]) (stool consistency score). The fecal occult blood (including proctorrhagia) was graded using fecal occult blood slide 5 Shionogi II (Shionogi & Co., Ltd.) into 6 levels; negative (no change of the slide color from yellow, score 0), weakly positive (slightly blue green, score 1), positive (blue green, score 2), moderately positive (clear blue green, score 3), strongly positive (instantaneous color change to dark blue with color developer, score 4), and proctorrhagia (score 5). The sum of the stool consistency score and occult blood score was defined as the stool score. Eight to 10 animals were used for each group, and the results were expressed as average ± standard deviation. On the day of autopsy, after laparotomy under ether anesthesia and blood collection, the mice were exsanguinated to death. Then the large intestines were dissected from just below the cecum to the anus and the length thereof was measured.

Mouse EP4 = biological target: T1, Mouse EP4 (Mus musculus, UniProt P32240); assay: Receptor affinity, tritium-labeled PGE2 binding to membranes of transfected COS-7 cells
T1 construct: expressed in transfected cells; host or cells: COS-7
T1 sequence (P32240 whole entry): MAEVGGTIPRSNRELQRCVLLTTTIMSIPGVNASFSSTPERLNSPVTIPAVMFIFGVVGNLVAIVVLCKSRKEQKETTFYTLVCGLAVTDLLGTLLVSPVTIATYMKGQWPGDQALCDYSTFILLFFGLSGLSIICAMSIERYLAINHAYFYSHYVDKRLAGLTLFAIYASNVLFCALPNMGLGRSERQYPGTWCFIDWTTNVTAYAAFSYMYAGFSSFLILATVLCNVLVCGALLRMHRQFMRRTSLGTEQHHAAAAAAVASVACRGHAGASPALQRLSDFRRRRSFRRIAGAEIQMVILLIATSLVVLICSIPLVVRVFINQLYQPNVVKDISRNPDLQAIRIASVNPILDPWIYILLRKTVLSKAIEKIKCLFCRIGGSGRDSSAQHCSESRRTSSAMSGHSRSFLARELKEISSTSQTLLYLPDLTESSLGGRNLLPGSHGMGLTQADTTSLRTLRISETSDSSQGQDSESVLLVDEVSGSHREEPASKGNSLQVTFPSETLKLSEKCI
Method: (§1) PG receptor affinity of compound F and compound J of the present invention was evaluated. Compound F used was one synthesized in Example 9, and compound J was prepared by separating and purifying the compound synthesized in Example 14 with a column (the same preparations were used in the following Examples). COS-7 cells were transfected with the genes of mouse EP4, human EP1-4 or human IP to overexpress the receptor and then the cell membranes were collected. […] The dissociation constant Kd value was obtained and inhibition constant Ki value of each test compound was determined in a conventional method.

Human EP2 = biological target: T2, Human EP2 (Homo sapiens, UniProt P43116); assay: as above
T2 construct: expressed in transfected cells; host or cells: COS-7
T2 sequence (P43116 whole entry): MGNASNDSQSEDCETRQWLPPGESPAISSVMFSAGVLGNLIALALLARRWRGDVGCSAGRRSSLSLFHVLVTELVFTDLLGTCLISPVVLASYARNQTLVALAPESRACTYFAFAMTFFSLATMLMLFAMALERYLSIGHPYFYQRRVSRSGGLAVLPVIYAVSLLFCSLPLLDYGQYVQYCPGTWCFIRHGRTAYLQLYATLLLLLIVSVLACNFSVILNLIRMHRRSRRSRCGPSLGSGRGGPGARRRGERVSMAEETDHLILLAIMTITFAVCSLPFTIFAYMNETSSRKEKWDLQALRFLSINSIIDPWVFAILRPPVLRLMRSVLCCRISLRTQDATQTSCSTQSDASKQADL
Method: as §1

pKi (Mouse EP4): 7.17
pKi (Human EP2): 6.24
Compound: Cc1cccc([C@@H](C)[C@H](O)/C=C/[C@@H]2[C@@H]3[C@H](C[C@H]2O)O/C(=C\CCCc2nnn[nH]2)C3(F)F)c1 [Compound F, 4-[(Z)-(1S,5R,6R,7R)-6-[(1E,3R,4R)-3-hydroxy-4-(m-tolyl)-1-pentenyl]-7-hydroxy-2-oxa-4,4-difluoro-bicyclo[3.3.0]octan-3-ylidene]-1-(tetrazol-5-yl)butane]
effect on increase of plasma ALT activity [1]: significantly and strongly suppressed the increase
effect on increase of plasma AST activity [1]: significantly and strongly suppressed the increase
effect on the onset of colitis (stool score, colon shortening) [2]: superior prophylactic effect on the onset of colitis
effect on total ulcer area (stomach) ([3]; oral 1 mg/kg 30 min before ethanol): almost completely reduced the area
effect on total ulcer area (stomach) ([3]; oral 0.01, 0.1 and 1 mg/kg 30 min before ethanol): significantly reduced the total ulcer area in a dose-dependent manner from 0.01 mg/kg
suppression of the increase in the stool score ([4]; oral 0.1 mg/kg once a day): suppressive tendency
suppression of the increase in the stool score ([4]; oral 0.3 mg/kg once a day): significant
suppression of the increase in the stool score ([4]; oral 1 mg/kg once a day): significant
effect on shortening of the large intestine ([4]; oral 0.1, 0.3 and 1 mg/kg once a day): dose-dependent suppressive effect on shortening of the large intestine
